In brackets after ≈: the same amount, converted by molar mass.
Tests used:
[1] = test system: Human colon cancer cell line HT-29; assay: Determination of the activity of inhibiting cell proliferation (Cell Counting Kit-8); assay type: cell-based; settings: HT-29, 96 h, HT29, 2,000 cells/well, incubated four days, read-out: Cell proliferation inhibitory activity (HT29) IC50
Experimental: Human colon cancer cell line HT-29, obtained from American Type Culture Collection (VA, USA), and human non-small cell lung cancer cell line QG56, obtained from Immuno-Biological Laboratories Co., Ltd., were plated at 2,000 cells/well in a 96-well culture plate, and incubated for four days after addition of a MEK inhibitor of a given concentration.

[2] = Determination of stability against mouse liver microsomes; assay type: in vitro ADME; settings: mouse liver microsomes 1 mg protein/mL, 2 mM NADPH, pH 7.4, 37 C; read-out: Stability against mouse liver microsome NADPH+ T1/2
Experimental: (§1) The enzyme reaction was quenched with three volumes of acetonitrile, and the reaction mixture was centrifuged at 1,500 rpm for ten minutes to provide a supernatant as a sample to be measured. Stability against mouse liver microsomes was measured using HPLC/MS to determine the compounds in the sample.

[3] = Determination of stability against human liver microsomes; assay type: in vitro ADME; settings: human liver microsomes 1 mg protein/mL, 2 mM NADPH, pH 7.4, 37 C; read-out: Stability against human liver microsome NADPH+ T1/2
Experimental: as §1, with “human” for “mouse”

[4] = phase I clinical trials; cited from earlier work
[5] = Determination of water solubility (equilibrium stirring method); assay type: physicochemical; settings: 50 mM phosphate buffer pH 6.5, room temperature (20 C); for solubility at 2 h: aqueous buffer, thermodynamic from solid, read-out: Water solubility (LySA PH 6.5)
Experimental: The vessels were sealed, and the contents were sonicated at room temperature (20° C.) for ten minutes, and then stirred with a stirrer for two hours. After reaching solution equilibrium, the solution was separated with a membrane filter, and the solute concentration was determined using HPLC.

[6] = target: MEK (Homo sapiens, UniProt Q02750); assay: Determination of MEK inhibitory activities (Raf-1 kinase cascade assay, MBP phosphorylation, 33P-ATP)
MEK, sequence (Q02750 whole entry): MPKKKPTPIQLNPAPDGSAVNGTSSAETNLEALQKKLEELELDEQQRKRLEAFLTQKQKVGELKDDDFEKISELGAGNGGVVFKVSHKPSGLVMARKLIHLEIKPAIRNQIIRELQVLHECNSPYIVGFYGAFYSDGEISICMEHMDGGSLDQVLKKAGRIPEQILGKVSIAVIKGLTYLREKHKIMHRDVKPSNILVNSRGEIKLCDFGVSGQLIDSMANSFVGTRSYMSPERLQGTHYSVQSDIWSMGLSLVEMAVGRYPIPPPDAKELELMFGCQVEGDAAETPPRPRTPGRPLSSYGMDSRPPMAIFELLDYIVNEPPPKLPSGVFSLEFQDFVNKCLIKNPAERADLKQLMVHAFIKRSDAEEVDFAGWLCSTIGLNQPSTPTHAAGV
From the text: The radioisotope used was [γ^33P]-ATP (Amersham Biosciences, K.K.).

IC50 [1]	half-life [2]	half-life [3]	solubility at 2 h [5]	IC50 [6]	Water solubility (LySA PH 6.5) [5]	SMILES	differences in pharmacokinetic parameters between patients [4]	in vivo inactivation [4]
37 nM	0.79 h	0.91 h	127 µM (≈ 72.3 µg/mL)	27 nM	–	O=C(NOCC(O)CO)c1cc(/C=N\OCCO)c(F)c(F)c1Nc1ccc(I)cc1F (racemic) [Compound 58, dl-(Z)—N-(2,3-dihydroxy-propoxy)-3,4-difluoro-2-(2-fluoro-4-iodo-phenylamino)-5-[(2-hydroxy-ethoxyimino)-methyl]-benzamide]	–	–
27 nM	> 6 h	> 6 h	224 µM (≈ 134 µg/mL)	19 nM	–	O=C(CO/N=C\c1cc(C(=O)NOCCO)c(Nc2ccc(I)cc2F)c(F)c1F)NCCO [Compound 57, (Z)-3,4-Difluoro-2-(2-fluoro-4-iodo-phenylamino)-N-(2-hydroxy-ethoxy)-5-{[(2-hydroxyethylcarbamoyl)-methoxyimino]-methyl}-benzamide]	–	–
651 nM	> 6 h	> 6 h	1480 µM (≈ 879 µg/mL)	802 nM	–	O=C(NOCCO)c1cc(/C=N/OCCN2CCCC2)c(F)c(F)c1Nc1ccc(I)cc1F [Compound 21, (E)-3,4-difluoro-2-(2-fluoro-4-iodo-phenylamino)-N-(2-hydroxy-ethoxy)-5-[(2-pyrrolidin-1-yl-ethoxyimino)-methyl]-benzamide]	–	–
50 nM	> 6 h	> 6 h	< 31.3 µM	20 nM	–	O=C(NOCCO)c1cc(/C=N/OCc2ncc[nH]2)c(F)c(F)c1Nc1ccc(I)cc1F [Compound 28, (E)-3,4-difluoro-2-(2-fluoro-4-iodo-phenylamino)-N-(2-hydroxy-ethoxy)-5-[(1H-imidazol-2-ylmethoxyimino)-methyl]-benzamide]	–	–
4.8 nM	> 6 h	> 6 h	–	31 nM	75 µM	O=C(NOCCO)c1cc(/C=N\OCCO)c(F)c(F)c1Nc1ccc(I)cc1F [Compound 49, (Z)-3,4-difluoro-2-(2-fluoro-4-iodo-phenylamino)-N-(2-hydroxy-ethoxy)-5-[(2-hydroxy-ethoxyimino)-methyl]-benzamide]	–	–
65 nM	0.97 h	1.55 h	6.4 µM (≈ 3.17 µg/mL)	78 nM	–	O=C(NOCCO)c1cc(/C=N/O)c(F)c(F)c1Nc1ccc(I)cc1F [Compound 3, (E)-3,4-difluoro-2-(2-fluoro-4-iodo-phenylamino)-N-(2-hydroxy-ethoxy)-5-(hydroxyiminomethyl)-benzamide]	–	–
210 nM	3.08 h	> 6 h	2400 µM (≈ 1360 µg/mL)	244 nM	–	CN(C)CCO/N=C/c1cc(C(=O)NOCCO)c(Nc2ccc(I)cc2F)c(F)c1F [Compound 16, (E)-5-[(2-dimethylamino-ethoxyimino)-methyl]-3,4-difluoro-2-(2-fluoro-4-iodo-phenylamino)-N-(2-hydroxy-ethoxy)-benzamide]	–	–
6.5 nM	> 6 h	> 6 h	20 µM (≈ 11.6 µg/mL)	21 nM	–	CC(=O)NCCO/N=C\c1cc(C(=O)NOCCO)c(Nc2ccc(I)cc2F)c(F)c1F [Compound 54, (Z)-5-[(2-Acetylamino-ethoxyimino)-methyl]-3,4-difluoro-2-(2-fluoro-4-iodo-phenylamino)-N-(2-hydroxy-ethoxy)-benzamide]	–	–
3.4 nM	0.645 h	> 6 h	85 µM (≈ 48.1 µg/mL)	49 nM	–	CNC(=O)CO/N=C\c1cc(C(=O)NOCCO)c(Nc2ccc(I)cc2F)c(F)c1F [Compound 56, (Z)-3,4-Difluoro-2-(2-fluoro-4-iodo-phenylamino)-N-(2-hydroxy-ethoxy)-5-(methylcarbamoylmethoxyimino-methyl)-benzamide]	–	–

SMILES	IC50 [1]	half-life [2]	half-life [3]	solubility at 2 h [5]	IC50 [6]	Water solubility (LySA PH 6.5) [5]	differences in pharmacokinetic parameters between patients [4]	in vivo inactivation [4]
O=C(NOCC1CC1)c1ccc(F)c(F)c1Nc1ccc(I)cc1Cl [CI-1040, reference compound]	100 nM	0.18 h	0.482 h	–	–	–	large differences	quick in vivo inactivation by hydrolysis

From US8084645B2, “4-phenylamino-benzaldoxime derivatives and uses thereof as mitogen-activated protein kinase kinase (MEK) inhibitors” (Chugai Seiyaku Kabushiki Kaisha, priority 2003, dated 2011)
